Assay [1] deals with vancomycin-resistant E. faecium. Kind of assay: VRE nutrient utilization protocol: nitrogen sources, leave-one-out. The assay is classed as cell-based, Enterococcus faecium. Particulars: aerobic; leave-one-out from nitrogen source mixture in minimal medium. How it is done:
(§1) VRE minimal media consists of potassium phosphate monobasic (4 g/L), potassium phosphate dibasic (14 g/L), sodium citrate (1 g/L), magnesium sulphate (0.2 g/L), ammonium sulphate (2 g/L), adenosine (0.04 g/L), thymine (0.04 g/L), Kao and Michayluk vitamin solution [Sigma, K3129, 50× Stock](5×), glucose (1 g/L) and amino acid solution [Sigma, R7131, RPMI-1640, 50×](25×). If the study was performed under anaerobic conditions, fumarate (5.2 g/L) was added to increase growth of VRE strains. Carbon-free minimal media was prepared by leaving out glucose while nitrogen-free minimal media was prepared without the amino acid solution. Media was filter sterilized with a 0.22 micron filter and used immediately aerobically or degassed overnight if used anaerobically.
(§2) VRE strains were grown on R2A overnight before the cells were suspended in 0.9% saline to an OD of 0.38 (λ=595 nm). A 10% dilution of the cell suspension was prepared using VRE minimal media to achieve a final well OD of […] (λ=595 nm) greater than the sterile media OD. Both carbon and nitrogen source utilization were evaluated by adding the inoculated media and a filter-sterilised nutrient source solution into a well in a 1:1 ration to a final volume of 100 μL in aerobic tests and 200 μL in anaerobic tests. Carbon sources were tested individually and compared to a carbon-free control. To test nitrogen source utilization, a nitrogen source solution was prepared containing L-alanine (2 g/L), L-arginine (2.5 g/L, L-asparagine (0.71 g/L), L-aspartate (0.25 g/L), L-cysteine (0.625 g/L), L-glutamate (0.25 g/L), L-Glycine (0.125 g/L), L-histidine (0.1875 g/L), L-isoleucine (0.625 g/L), L-leucine (0.625 g/L), L-lysine HCl (0.5 g/L), L-methionine (0.1875 g/L), L-phenylalanine (0.1875 g/L), L-proline (0.25 g/L), L-serine (0.375 g/L), L-threonine (0.25 g/L), L-tryptophan (0.0625 g/L), L-tyrosine (0.29 g/L), L-valine (0.25 g/L), N-acetylglucosamine (2 g/L), and uracil (2.5 g/L). To test the strains' ability to utilize individual nitrogen sources, separate solutions were prepared eliminating one nitrogen source each. The change in growth compared to the complete nitrogen source solution control was used to determine nitrogen utilization. All carbon and nitrogen sources were tested in a technical triplicate for each biological replicate. Aerobic plates were incubated with a plate seal while anaerobic plates were not. The aerobic plate reader was set to read the plate (λ=595 nm, 37° C., 22 flashes per well, orbital shaking of 100 rpm for 15 s prior to each read) every 15 minutes for 24 hours. The anaerobic plate reader read the plate (λ=595 nm, 37° C., stationary) every 15 minutes for 24 hours.

In assay [2] the test system is NDM-1 Klebsiella pneumoniae. As to the kind of experiment: Nutrient preference assay (nutrient mixture). The assay is classed as cell-based. The following applies: M9 with […] of each nutrient, up to 24 hours. How it is done:
(§3) New Delhi Metallo-β-lactamase 1 (NDM-1) Escherichia coli, NDM-1 Klebsiella pneumoniae, and NDM-1 Enterobacter cloacae were isolated from patients with intestinal CRE colonisation from the Imperial College Healthcare NHS Trust via rectal swab (REC ref. 19/LO/0112). The species were assigned by matrix assisted laser desorption ionization-time of flight (MALDI-TOF) mass spectrometry and later confirmed with 16S rRNA gene sequencing. CRE status was determined using X-pert Carba-R PCR detection (Cepheid, Sunnyvale, CA, USA), (Otter, J. A. et al. Detecting carbapenemase-producing Enterobacterales (CPE): an evaluation of an enhanced CPE infection control and screening programme in acute care. J Antimicrob Chemother 75, 2670-2676 (2020)).
(§4) CRE isolates were passaged once from frozen glycerol stocks on R2A plates. Cells were suspended in M9 minimal media to a turbidity of 42% using a Turbidimeter (Biolog Inc.), then diluted 1 in 6 to inoculate the nutrient preference assays. M9 minimal media was supplemented with 0.015% of each of the following: L-arabinose, D-fructose, L-fucose, D-galactose, D-glucose, D-mannose, D-ribose, D-xylose, N-acetylglucosamine, D-maltose, sucrose, D-trehalose, L-alanine, L-arginine, L-aspartate, L-glutamate, L-glycine, L-isoleucine, L-leucine, L-lysine, L-methionine, L-phenylalanine, L-proline, L-threonine, L-tryptophan, L-tyrosine, L-valine, uracil, and succinate. Cultures were incubated anaerobically and aerobically in a plate reader and OD600 readings were collected every 15 minutes for 24 hours. Cultures were also incubated anaerobically and aerobically for 24 h and samples were collected at 0, 4, 8, and 24 hours post-inoculation for 1H-NMR spectroscopy. Changes in nutrients and metabolites by CRE isolates was compared to the sterile media control over time using a two-way mixed ANOVA followed by pairwise comparisons with Bonferroni correction. […]

The test system of assay [3] is NDM-1 Enterobacter cloacae. As to the kind of experiment: Nutrient preference assay (nutrient mixture). The assay is classed as cell-based. Particulars: M9 with […] of each nutrient, up to 24 hours. How it is done: as §3, §4
Assay [4] deals with NDM-1 Escherichia coli. Kind of assay: Nutrient preference assay (nutrient mixture). In kind it is cell-based. Particulars: M9 with […] of each nutrient, up to 24 hours. As for the experimental part: as §3, §4
Assay [5] deals with NDM-1 Escherichia coli. As to the kind of experiment: Nitrogen utilisation assay. In kind it is cell-based. Particulars: aerobic; M9 minimal medium with glucose, 0.1% (w/v) nitrogen source. As for the experimental part: as §3
(§5) Growth of CRE isolates on sole carbon or nitrogen sources was tested by inoculating each CRE isolate into a minimal medium supplemented with the nutrient of interest. First, CRE isolates were passaged from frozen glycerol stocks on Reasoner's 2A agar (R2A) plates. Cells were then suspended in M9 minimal media to a turbidity of 42% using a Turbidimeter (Biolog Inc.), then diluted a further 1 in 6 to inoculate the carbon or nitrogen utilisation assays. M9 minimal media contained the following (at final concentrations): 22 mM KH2PO4, 42 mM Na2HPO4, 9 mM NaCl, 0.49 mM MgSO4·7H2O, 0.09 mM CaCl2), 0.011 mM FeSO4·7H2O. For the carbon assays the M9 minimal medium was also supplemented with 0.1% (w/v) NH4Cl (as the nitrogen source) and the carbon sources were individually tested at 0.5% (w/v) concentration. For the nitrogen assays the M9 minimal medium was also supplemented with 0.5% (w/v) glucose (as the carbon source) and the nitrogen sources were individually tested at 0.1% (w/v) concentration. Cultures were incubated anaerobically and aerobically in a plate reader and OD600 readings were collected every 15 minutes for 24 hours.
(§6) Growth curves were analysed in Python (v3.6.5) using the AMiGA software (Midani, F. S., Collins, J. & Britton, R. A. AMiGA: Software for Automated Analysis of Microbial Growth Assays. mSystems 6, e0050821 (2021)). Growth of each isolate was measured with 6 wells from 2-3 independent experiments. Growth curves were normalised to the no substrate control using the subtraction method. AMiGA performed Gaussian Process regression to test differential growth between the substrate and the no substrate control. The functional difference in the OD (and its credible interval) was also computed between the substrate and the no substrate control.

The test system of assay [6] is vancomycin-resistant E. faecalis. As to the kind of experiment: VRE nutrient utilization protocol: nitrogen sources, leave-one-out. The following applies: aerobic; leave-one-out from nitrogen source mixture in minimal medium. In kind it is cell-based, Enterococcus faecalis. As for the experimental part: as §1, §2
The test system of assay [7] is vancomycin-resistant E. faecium. Kind of assay: VRE nutrient utilization protocol: carbon sources. Particulars: aerobic; VRE minimal medium. The assay is classed as cell-based, Enterococcus faecium. How it is done:
as §1, §2

The subject of a further assay is faecal microbiota. Kind of assay: Faecal batch culture with antibiotics promoting CRE colonisation: 1H-NMR of nutrients and metabolites. In kind it is cell-based, human. The following applies: 11 healthy donors, antibiotic at faecal concentration, 24 hours anaerobic. As for the experimental part: The inventors performed faecal culture experiments to measure the effects of eight broad-spectrum antibiotics on the faecal microbiota collected from 11 healthy human donors. Faecal culture experiments were performed under anaerobic conditions using a complex gut growth medium that was designed to mimic the nutrients found in the human distal gut (McDonald, J. A. et al. Evaluation of microbial community reproducibility, stability and composition in a human distal gut chemostat model. J. Microbiol. Methods 95, 167-174 (2013)). […] Moon, Y. S., Chung, K. C. & Gill, M. A. Pharmacokinetics of meropenem in animals, healthy volunteers, and patients. Clin Infect Dis 24, S249-S255 (1997). Kager, L., Brismar, B., Malmborg, A. S. & Nord, C. E. Imipenem concentrations in colorectal surgery and impact on the colonic microflora. Antimicrob Agents Chemother 33, 204-8 (1989). Pletz, M. et al. Ertapenem pharmacokinetics and impact on intestinal microflora, in comparison to those of ceftriaxone, after multiple dosing in male and female volunteers. Antimicrob Agents Chemother 48, 3765-72 (2004). Nord, C. E., Brismar, B., Kasholm-Tengve, B. & Tunevall, G. Effect of piperacillin/tazobactam treatment on human bowel microflora. J Antimicrob Chemother 31, 61-5 (1993). […] Antimicrob Agents Chemother 63, 2244 (2019). Pessôa de Menezes e Silva, C H. Elaboration and evaluation of a new screening medium for detection and presumptive identification of extended-spectrum beta-lactamase-producing organisms (ESBL). Braz J Microbiol 31, 271-274 (2000). Brismar, B., Edlund, C., Malmborg, A. S. & Nord, C. […] Antimicrob Agents Chemother 34, 481-3 (1990)). Cultures were incubated anaerobically at 37° C. for 24 hours. Samples were analysed by ^1H-NMR spectroscopy (for nutrient and metabolite profiling) and […] rRNA gene sequencing with 16S rRNA gene qPCR (for bacterial composition and biomass) (McDonald, J. A. K. et a/. Inhibiting Growth of Clostridioides difficile by Restoring Valerate, Produced by the Intestinal Microbiota. Gastroenterology 155, 1495-1507 (2018)).
Supernatants were prepared from faeces by vortexing 300 mg of faeces in 900 μl of HPLC-grade water for 10 minutes at 3000 rpm followed by centrifugation at 17,000×g for 10 minutes at 4° C. Supernatants were prepared from faecal culture samples by centrifugation at 17,000×g for 10 minutes at 4° C. Supernatants were frozen at −80° C. until they were ready for analysis.
^1H-NMR spectroscopy was performed as previously described (McDonald, J. A. K. et al. Inhibiting Growth of Clostridioides difficile by Restoring Valerate, Produced by the Intestinal Microbiota. Gastroenterology 155, 1495-1507 (2018)). Briefly, sample supernatants were randomized and defrosted at room temperature for 1 hour. Sample supernatants were then centrifuged for 10 min at 17 000×g and 4° C. The pellet was discarded and 400 μl of supernatant was added to 250 μl NMR buffer (28.85 g Na2HPO4, 5.25 g NaH2PO4, 1 mM TSP, 3 mM NaN3, deuterium oxide to 1 L, pH 7.4). 600 μl of sample was used to fill each 5 mm NMR tube to be loaded into the SampleJet system.
^1H-NMR spectroscopy was performed using the Bruker AVANCE III HD 800 MHz spectrometer (Bruker Bio-Spin, Rheinstetten, Germany). 1D spectra (a standard NOESYGPPR1D pulse sequence (RD-90°-t1-90°-tm-90°-ACQ)) as well as 2D spectra (standard 2D JRESGPPRQF pulse sequence) were acquired. A recycle delay of 4 seconds and mixing time of 100 ms was used. The 90° pulse length was approximately 10 μs and 32 scans were recorded.
NMR spectra were imported into MATLAB r2019b (The Mathworks, USA) using an in-house script. Spectra were aligned and the water (4.6-5 ppm) and TSP (−0.2-0.2 ppm) peaks were cut. Compounds were identified by comparison to spectral databases in Chenomx NMR Suite (Chenomx, Canada). Representative peaks were integrated for quantification of compounds.

For assay [8], the system named is NDM-1 Klebsiella pneumoniae. As to the kind of experiment: Carbon utilisation assay. The assay is classed as cell-based. Particulars: anaerobic; M9 minimal medium, 0.5% (w/v) carbon source. How it is done: as §3, §5, §6
Assay [9] deals with NDM-1 Enterobacter cloacae. Kind of assay: Carbon utilisation assay. In kind it is cell-based. The following applies: anaerobic; M9 minimal medium, 0.5% (w/v) carbon source. How it is done: as §3, §5, §6
Assay [10] concerns NDM-1 Escherichia coli. Kind of assay: Carbon utilisation assay. Particulars: anaerobic; M9 minimal medium, 0.5% (w/v) carbon source. The assay is classed as cell-based. How it is done:
as §3, §5, §6

`N[C@@H](Cc1c[nH]c2ccccc12)C(=O)O` [tryptophan, L-tryptophan]: in [1], the “Use as nitrogen source to support E. faecium growth” value is reported as “could use”. Moreover, the “Utilisation of nutrient by K. pneumoniae from nutrient mixture (1H-NMR)” value in assay [2] (aerobic) and in assay [2] (anaerobic) was “not utilised” in each case. For the same compound, the “Utilisation of nutrient by E. cloacae from nutrient mixture (1H-NMR)” value in [3] (aerobic) and in assay [3] (anaerobic) was “not utilised” throughout. Besides, the “Utilisation of nutrient by E. coli from nutrient mixture (1H-NMR)” value in the assay with NDM-1 Escherichia coli [4] (aerobic) is “high utilisation”; in the assay with NDM-1 Escherichia coli [4] (anaerobic), “moderate utilisation”. The “Use as sole nitrogen source to support E. coli growth” value in the assay with NDM-1 Escherichia coli [5] is “able to grow”. Besides, the “Use as nitrogen source to support E. faecalis growth” value in assay [6] was “could use”. Besides, in assay [7], the “Use as sole carbon source to support E. faecium growth” value is reported as “could use”.

Regarding `C[C@@H](O)[C@H]1C(=O)N2C(C(=O)O)=C(S[C@@H]3CN[C@H](C(=O)Nc4cccc(C(=O)O)c4)C3)[C@H](C)[C@H]12` [ETP, ertapenem], the “Change in butyrate concentration in faecal cultures” value (“Change in butyrate concentration” below) with faecal microbiota was “decreased”.

As to imipenem/cilastatin [IPM], the “Change in butyrate concentration” value in the assay on faecal microbiota is given as “increased”.

On to `C[C@@H](O)[C@H]1C(=O)N2C(C(=O)O)=C(S[C@@H]3CN[C@H](C(=O)N(C)C)C3)[C@H](C)[C@H]12` [MEM, meropenem], for which, in the assay with faecal microbiota, the “Change in butyrate concentration” value is reported as “increased”.

As for `O=C[C@H](O)[C@@H](O)[C@@H](O)CO` [arabinose, L-arabinose], in [8], the “Use as sole carbon source to support K. pneumoniae growth” value was “could use”. Moreover, the “Use as sole carbon source to support E. cloacae growth” value in assay [9] is “could use”. Also, the “Use as sole carbon source to support E. coli growth” value in the assay with NDM-1 Escherichia coli [10] was “could use”. In [7], the “Use as sole carbon source to support E. faecium growth” value is listed as “could use”.
